A short description of data set [1]: Solubility of Bendamustine Hydrochloride in DMA.
A short description of data set [2]: Solubility of Bendamustine Hydrochloride in DMA-Water Mixture. The data set is classed as physicochemical. The following applies: organic solvent or mixture, thermodynamic from solid, 5° C. The protocol:
To 10 ml of DMA-water mixture, excess (˜2-3 g) of Bendamustine Hydrochloride hydrate was added and the mixture was stirred for 24 hr while keeping in a constant temperature bath. After 24 hr, the mixture was centrifuged to remove the undissolved solid and the supernatant was filtered through a 0.2 micron filter. The clear filtrate was assayed.

For data set [3] the following is noted: room temperature; reported in U.S. Pat. No. 8,344,006; cited from earlier work.

Counter-ions that a name gives are not always drawn.

As usually defined, the solubility is the dissolved amount per volume that the medium holds. For the compound `Cn1c(CCCC(=O)O)nc2cc(N(CCCl)CCCl)ccc21` [Bendamustine Hydrochloride hydrate], the “concentration of solutions in DMA made by adding water to DMA” value in data set [1] (DMA with added water) is given as “up to 200 mg/mL”. Also, the solubility in data set [1] (DMA, 2 °C, organic solvent or mixture) was roughly 65 mg/mL. Besides, the solubility at 24 h worked out at 67 mg/mL in data set [2] (DMA:Water 60:40); 169 mg/mL in data set [2] (DMA:Water 80:20); 201 mg/mL in data set [2] (DMA:Water 90:10); 114 mg/mL in data set [2] (DMA:Water 95:5); 116 mg/mL in data set [2] (DMA:Water 97:3); 72 mg/mL in data set [2] (DMA).

Take `Cn1c(CCCC(=O)O)nc2cc(N(CCCl)CCCl)ccc21` [Bendamustine Hydrochloride]: the “solubility in DMA” value in data set [3] is given as “about 56 mg/mL”.
